Test results reported in patent US11331333B2, “Treatment of aberrant fibroblast proliferation” (Georg August Universitaet Goettingen Stiftung Oeffentlichen …, priority 2019, dated 2022).

How the values were obtained:
Type in all cases: cell-based, mouse
[1] = system: primary murine fibroblast cultures overexpressing EYA1A; test: γH2A.X^pY142 labelling after NCS exposure in fibroblasts overexpressing EYA1A; conditions: 60 minutes after NCS exposure
Excerpt: (§1) FIGS. 12A-12B show the effect of the established EYA1 γH2A.X^pY142 tyrosine phosphatase inhibitors Na3VO4 (blocking tyrosine phosphatase activity) and caffeine (blocking ATM-dependent recruitment of EYA1 towards γH2A.X) on γH2A.X^pY142 dephosphorylation and fibroblast accumulation. FIG. 12A depicts results of an analysis of photomicrographs of primary murine fibroblast cultures transfected with control plasmids (vector) and plasmids overexpressing EYA1A (EYA1A^oe) or EYA1C (EYA1C^oe). Cells were exposed to either Na3VO4 or caffeine and labelled for 7H2A.X^pY142 60 minutes after NCS exposure (n=100 nuclei each, data are presented as means±s.d., **p<0.01, # no significance, values of p were calculated using Student's t test comparing indicated groups). FIG. 12B depicts results of an analysis of proliferative activity of primary murine fibroblasts transfected with indicated constructs, seeded at a density of 60,000 per well. Proliferative activity was determined at indicated time points after exposure to Na3VO4 or caffeine (n=3 independent replicates, data are presented as means±s.d., ***p<0.001, ****p<0.0001, values of p were calculated using one-way ANOVA with Bonferroni post-hoc analysis comparing control and Na3VO4^− or caffeine-treated cultures overexpressing EYA1A). […]

[2] = system: primary murine fibroblast cultures overexpressing EYA1C; test: γH2A.X^pY142 labelling after NCS exposure in fibroblasts overexpressing EYA1C; conditions: 60 minutes after NCS exposure
Excerpt: as §1

[3] = system: primary murine fibroblasts overexpressing EYA1A; test: Proliferative activity of primary murine fibroblasts overexpressing EYA1A; conditions: seeded at 60,000 per well
Excerpt: FIGS. 12A-12B show the effect of the established EYA1 γH2A.X^[…] tyrosine phosphatase inhibitors Na3VO4 (blocking tyrosine phosphatase activity) and caffeine (blocking ATM-dependent recruitment of EYA1 towards γH2A.X) on γH2A.X^[…] dephosphorylation and fibroblast accumulation. FIG. 12A depicts results of an analysis of photomicrographs of primary murine fibroblast cultures transfected with control plasmids (vector) and plasmids overexpressing […]) or EYA1C (EYA1C^oe). […] FIG. 12B depicts results of an analysis of proliferative activity of primary murine fibroblasts transfected with indicated constructs, seeded at a density of 60,000 per well.

| Structure (SMILES) | EYA1A-induced premature γH2A.X^pY142 dephosphorylation [1] | γH2A.X^pY142 in EYA1C overexpressing cells [2] | EYA1A-induced fibroblast accumulation [3] |
| --- | --- | --- | --- |
| [Na+].[Na+].[Na+].[O]=[V]([O-])([O-])[O-] [Na3VO4, sodium orthovanadate] | reversed | neither Na3VO4 nor caffeine affected | reversed |
| Cn1c(=O)c2c(ncn2C)n(C)c1=O [caffeine] | reversed | neither Na3VO4 nor caffeine affected | reversed |
